Legend:
[1] = Pharmacokinetic analysis in mice brain after p.o. and i.v. administration; type: in vivo; conditions: p.o. 10 mg/Kg and i.v. 1 mg/kg
[2] = test system: Tg mice (APPSwe; PS2N141I; TauP301L); assay: Triple transgenic (Tg, TauPS2APP) mouse model of Alzheimer's disease-related proteotoxicity, oral daily CA; type: in vivo
Text: FIG. 12. Chemical activation of CMA improves behavior and neuropathology in a mouse model of Alzheimer's disease-related proteotoxicity. (A) Schematic of regimen of CMA activator (CA) administration to TauPS2APP (Tg) mice. (B-D) Performance of Tg mice administered vehicle (Veh) or CMA activator (CA) in the novel object recognition test (B, left plot: % of time dedicated to the novel object; right plot: discrimination index), the elevated plus maze (C) and the forced swim test (D). (E) Clasping score in Tg mice +/− CA: time course of clasping score increase (left) and mean linear regression coefficient (right). (F) Performance of Tg mice +/− CA in horizontal grid test. (G-O) Immunostaining of immature amyloid plaques (MOAB2), mature amyloid depositions (6E10), β-sheet marker (Thioflavin S) and Threonine231-phosphorylated tau (pThr231 tau) in the dorsal hippocampus of Tg mice +/− CA. Montages of individual images from the scanning of whole brain slices are shown. Inset: Higher magnification of pThr231 tau staining. Scale bar: 200 μm. Quantification of images of montages of individual images from the scanning of whole brain slices of percentage of area positive and plaque size for MOAB2 (G, J), 6E10 (H, K) or Thioflavin S (I, L). Relationship between number of plaques and average plaque size for different markers of plaque maturity (ThS>6E10>MOAB2) […]. Quantification of percentage of area positive for pThr231 tau (N) and of the overlap between pThr231 tau staining and 6E10 staining (O). All quantifications (except clasping—E) were done at 12 months, in 4-6 mice per group. Data are mean±s.e.m. Comparisons were made using unpaired t-test (B-D, F, G-O), Two-way ANOVA test followed by Sidak's post-hoc analysis (E). *p<0.05, **p<0.005, ***p<0.0005.
FIG. 13. Effect of chemical activation of CMA in a mouse model of Alzheimer's disease-related proteotoxicity. (A-D) Quantification of size of plaques positive for MOAB2 (t7=3.181, p=0.0155) (A), 6E10 (B) or Thioflavin S (ThS) (C) and of T231-phosphorylated tau pathology (t8=2.382, p=0.0444) (D) in brain cortex from Tg mice administered Veh or CA for 4 months. (E) Summary heatmap highlighting the extent of pathology reduction upon CMA activation in cortex and dorsal hippocampus. * highlights significant difference between Veh and CA administered Tg mice. (F) Immunoblot for S202/T205-phosphorylated (AT8) tau in the brain of Tg mice treated with Veh or CA. Representative immunoblot (left) and densitometric quantification (t8=2.425, p=0.0415) (right). Values were normalized to ponceau and are expressed as folds of Veh treated mice. (G) Number of GFAP-positive astrocytes per area unit (t8=4.058, p=0.0036). (H-I) Representative images of immunostaining of inflammation (microglial marker: Iba1—Green), amyloid pathology (MOAB2—Magenta) and nuclear staining with DAPI (blue) in the dorsal hippocampus of Tg mice administered Veh or CA. Montages of individual images of the dorsal hippocampus from the scanning of whole brain slices are shown. Quantification of number of Iba1-positive microglial cells per area unit (t8=2.041, p=0.0755) (left) and mean cell size (t8=2.079, p=0.0713) (right) (H) and colocalization coefficient between microglia (Iba1) and amyloid plaques (MOAB2) (I) (Mann Whitney U=6, p=0.2571). Mean±s.e.m. and individual values are shown. Comparisons were made using unpaired t-test analysis. *: p<0.05, **: p<0.005.
Male wild-type mice (C57BL/6J) or transgenic for CaMKIIα-Cre (B6.Cg-Tg(Camk2α-cre)T29-1Stl/J, Jackson Laboratory), LAMP-2A^flox/flox (Schneider et al., 2014), Tau^P301L (line pR5), Tg (APP^Swe; PS2^N141I; Tau^P301L), PS19 (Tau^P301S) (Yoshiyama et al., 2007) and Atg7^f/f were used in the study. Conditional LAMP-2A deletion was generated by breeding LAMP-2A^flox/flox with the transgenic Cre mice of interest. […]

[3] = dorsal hippocampus, 30 mg/kg oral daily, 4 months
[4] = hippocampus and cortex, 30 mg/kg oral daily, 4 months

CC(=O)Nc1ccc(-c2cnc3cc(Cl)ccc3n2)cc1 [CA77.1]
brain penetrance and pharmacokinetics [1]: brain penetrance with favorable pharmacokinetics
visual memory (novel object recognition test) ([2]; 30 mg/kg oral daily for 4 months from 8 months of age): better visual memory
anxiety- and depression-like behaviors (elevated plus maze, forced swim test) ([2]; 30 mg/kg oral daily, 4 months): decreased anxiety- and depression-like behaviors
clasping progression ([2]; 30 mg/kg oral daily, 4 months): slower clasping progression
number of amyloid deposits ([2]; 30 mg/kg oral daily, 4 months): lower number of deposits depending on the deposit maturity
performance in horizontal grid test ([2]; 30 mg/kg oral daily, 4 months): increased performance in horizontal grid test
S202/T205-phosphorylated (AT8) tau by immunoblot ([2]; brain, 30 mg/kg oral daily, 4 months): significant reduction of the mature phosphosite AT8
association of glial cells with amyloid plaque-like deposit [2, 3]: less association of glial cells with amyloid plaque-like deposit
number of microglia and astrocytes [2, 3]: lower number of microglia and astrocytes in the dorsal hippocampus
T231 phosphorylated Tau levels [2, 4]: reduced levels of the early T231 phosphorylated Tau
area and size of amyloid plaques (MOAB2, 6E10, thioflavin S) [2, 4]: reduced area and size of immature (MOAB2-positive) and mature (6E10 and thioflavin S-positive) amyloid plaques

From patent US20240189307A1, “METHODS OF STABILIZING THE NEURONAL PROTEOME AGAINST COLLAPSE AND PROTECTING VASCULAR CELLS” (ALBERT EINSTEIN COLLEGE OF MEDICINE, priority 2021, published 2024)
